Assay results taken from ChEMBL document CHEMBL1201862, “PubChem BioAssay data set” (2004).
Active and inactive are the calls of the source.

Key:
[1] = molecular target: Muscarinic acetylcholine receptor M1 (Rattus norvegicus, UniProt P08482); assay: Discovery of novel allosteric modulators of the M1 muscarinic receptor: Agonist NMS binding at M1. [Related pubchem assays: 626 ]
[2] = molecular target: Muscarinic acetylcholine receptor M3 (Homo sapiens, UniProt P20309); assay: Discovery of novel allosteric modulators of the M1 muscarinic receptor: Agonist NMS competition at M3. [Related pubchem assays: 1488 (Discovery of novel allosteric modulators of the M1 muscarinic receptor: Agonist Confirmation Assay), 626 (Discovery of Novel Allosteric Modulators of the M1 Muscarinic Receptor: Agonist Primary Screen)]; type: functional
Chain of Muscarinic acetylcholine receptor M3 (P20309 whole entry): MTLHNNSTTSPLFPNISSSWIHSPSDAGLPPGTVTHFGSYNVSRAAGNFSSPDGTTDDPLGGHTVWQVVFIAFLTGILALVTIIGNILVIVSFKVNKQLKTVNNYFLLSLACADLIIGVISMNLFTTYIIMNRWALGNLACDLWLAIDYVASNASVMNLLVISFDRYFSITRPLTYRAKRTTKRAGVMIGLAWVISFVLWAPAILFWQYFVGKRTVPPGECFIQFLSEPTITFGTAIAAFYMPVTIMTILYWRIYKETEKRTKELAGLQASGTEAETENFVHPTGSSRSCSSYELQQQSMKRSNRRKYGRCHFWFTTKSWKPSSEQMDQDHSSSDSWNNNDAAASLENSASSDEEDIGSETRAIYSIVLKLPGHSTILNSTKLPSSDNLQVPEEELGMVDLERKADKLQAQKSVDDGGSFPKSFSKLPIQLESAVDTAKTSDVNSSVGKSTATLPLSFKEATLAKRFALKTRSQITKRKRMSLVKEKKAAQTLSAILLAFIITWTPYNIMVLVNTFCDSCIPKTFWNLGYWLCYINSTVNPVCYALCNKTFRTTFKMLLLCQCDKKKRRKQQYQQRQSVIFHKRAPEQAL

[3] = molecular target: Muscarinic acetylcholine receptor M2 (Homo sapiens, UniProt P08172); assay: Discovery of novel allosteric modulators of the M1 muscarinic receptor: Agonist NMS competition at M2. [Related pubchem assays: 626 (Discovery of Novel Allosteric Modulators of the M1 Muscarinic Receptor: Agonist Primary Screen), 1488 (Discovery of novel allosteric modulators of the M1 muscarinic receptor: Agonist Confirmation Assay)]; type: functional
Chain of Muscarinic acetylcholine receptor M2 (P08172 whole entry): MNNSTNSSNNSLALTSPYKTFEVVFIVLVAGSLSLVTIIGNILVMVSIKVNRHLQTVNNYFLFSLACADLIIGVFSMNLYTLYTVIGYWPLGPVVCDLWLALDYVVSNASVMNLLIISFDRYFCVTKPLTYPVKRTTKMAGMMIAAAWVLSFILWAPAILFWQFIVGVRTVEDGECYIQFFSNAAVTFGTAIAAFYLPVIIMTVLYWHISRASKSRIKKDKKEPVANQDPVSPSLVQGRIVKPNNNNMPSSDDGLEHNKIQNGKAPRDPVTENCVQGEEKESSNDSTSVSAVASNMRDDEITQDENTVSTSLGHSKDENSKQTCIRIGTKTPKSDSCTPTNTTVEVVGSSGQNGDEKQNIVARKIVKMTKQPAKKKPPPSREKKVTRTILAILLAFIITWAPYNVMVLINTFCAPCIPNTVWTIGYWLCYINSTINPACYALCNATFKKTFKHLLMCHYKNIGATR

[4] = molecular target: Muscarinic acetylcholine receptor M5 (Homo sapiens, UniProt P08912); assay: Discovery of novel allosteric modulators of the M1 muscarinic receptor: Agonist NMS competition at M5. [Related pubchem assays: 1488 (Discovery of novel allosteric modulators of the M1 muscarinic receptor: Agonist Confirmation Assay), 626 (Discovery of Novel Allosteric Modulators of the M1 Muscarinic Receptor: Agonist Primary Screen)]; type: functional
Chain of Muscarinic acetylcholine receptor M5 (P08912 whole entry): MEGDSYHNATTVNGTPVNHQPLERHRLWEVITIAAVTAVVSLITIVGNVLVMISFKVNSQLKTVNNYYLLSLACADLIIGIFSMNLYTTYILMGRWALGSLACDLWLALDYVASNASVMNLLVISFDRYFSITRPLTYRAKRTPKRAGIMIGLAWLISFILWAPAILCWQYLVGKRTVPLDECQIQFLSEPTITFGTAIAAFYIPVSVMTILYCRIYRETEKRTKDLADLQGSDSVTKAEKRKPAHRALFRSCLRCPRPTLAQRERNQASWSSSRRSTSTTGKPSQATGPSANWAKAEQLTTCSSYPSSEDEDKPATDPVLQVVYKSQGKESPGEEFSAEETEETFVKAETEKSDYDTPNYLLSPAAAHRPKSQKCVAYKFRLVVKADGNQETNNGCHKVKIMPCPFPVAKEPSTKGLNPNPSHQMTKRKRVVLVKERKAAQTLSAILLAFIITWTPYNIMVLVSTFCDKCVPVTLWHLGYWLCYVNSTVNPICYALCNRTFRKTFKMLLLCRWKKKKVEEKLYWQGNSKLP

Beta-lactamase [5] = molecular target: T1, Beta-lactamase (Pseudomonas aeruginosa, UniProt Q79MP6); assay: […] counterscreen for selective VIM-2 inhibitors: dose response biochemical high throughput screening assay to identify inhibitors of IMP-1 metallo-beta-lactamase.
T1 sequence (Q79MP6 whole entry, the tested form may be a part): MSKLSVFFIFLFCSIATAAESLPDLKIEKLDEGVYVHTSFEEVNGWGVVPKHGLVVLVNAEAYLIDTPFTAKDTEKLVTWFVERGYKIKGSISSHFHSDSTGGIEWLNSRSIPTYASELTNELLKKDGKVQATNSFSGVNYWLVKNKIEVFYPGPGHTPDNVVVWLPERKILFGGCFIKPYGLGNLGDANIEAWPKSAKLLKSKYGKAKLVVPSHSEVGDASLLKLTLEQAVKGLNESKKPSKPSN

[6] = HIV-1 Env-mediated cell fusion inhibitors, dose response, CCR5-tropic Env (AID 2279); type: functional
Beta Lactamase [7] = molecular target: T2, Beta Lactamase (Pseudomonas aeruginosa, UniProt Q932Y6); assay: VIM-2 metallo-beta-lactamase inhibitor potency, dose response, biochemical, epi-absorbance readout, selective inhibitors (AID 1919)
T2 sequence (Q932Y6 whole entry): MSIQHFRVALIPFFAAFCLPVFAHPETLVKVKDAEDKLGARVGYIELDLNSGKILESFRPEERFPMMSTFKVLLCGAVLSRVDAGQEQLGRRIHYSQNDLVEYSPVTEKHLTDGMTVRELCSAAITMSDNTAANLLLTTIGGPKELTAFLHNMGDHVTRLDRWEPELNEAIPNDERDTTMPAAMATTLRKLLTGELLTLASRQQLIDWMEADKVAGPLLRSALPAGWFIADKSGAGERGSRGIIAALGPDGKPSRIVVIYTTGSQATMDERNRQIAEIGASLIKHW

Beta-lactamase [8] = molecular target: Beta-lactamase (Salmonella choleraesuis (strain SC-B67), UniProt Q5J463); assay: Epi-absorbance-based counterscreen for selective VIM-2 inhibitors: dose response biochemical high throughput screening assay to identify inhibitors of TEM-1 serine-beta-lactamase.
Beta Lactamase [9] = molecular target: T2, Beta Lactamase; assay: VIM-2 inhibitor FRET-based artefact check, dose response, artefact control for selective VIM-2 inhibitor project, biochemical, FRET readout, CCF2 substrate (AID 1926)
[10] = molecular target: T3, Calpain-2 catalytic subunit (Sus scrofa, UniProt P43367); assay: pig calpain II inhibitor potency, dose response, biochemical, fluorogenic peptide substrate (AID 1420); type: functional
T3 sequence (P43367 whole entry): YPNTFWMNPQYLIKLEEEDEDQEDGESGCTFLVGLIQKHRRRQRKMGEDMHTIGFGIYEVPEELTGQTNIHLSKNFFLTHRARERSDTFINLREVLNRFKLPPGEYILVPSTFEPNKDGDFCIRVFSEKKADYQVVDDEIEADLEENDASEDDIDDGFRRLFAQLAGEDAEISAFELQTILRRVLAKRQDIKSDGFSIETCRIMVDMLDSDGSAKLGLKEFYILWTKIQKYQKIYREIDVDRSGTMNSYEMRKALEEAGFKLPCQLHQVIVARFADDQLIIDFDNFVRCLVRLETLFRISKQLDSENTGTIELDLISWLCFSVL

[11] = molecular target: T4, Probable nicotinate-nucleotide adenylyltransferase (Staphylococcus aureus (strain N315), UniProt P65502); type: functional, Staphylococcus aureus subsp. aureus N315;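 as to IC50 Mean: confirmatory dose-response retesting of NadD inhibitor hits first found in an ultra-high-throughput screen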
T4 sequence (P65502 whole entry): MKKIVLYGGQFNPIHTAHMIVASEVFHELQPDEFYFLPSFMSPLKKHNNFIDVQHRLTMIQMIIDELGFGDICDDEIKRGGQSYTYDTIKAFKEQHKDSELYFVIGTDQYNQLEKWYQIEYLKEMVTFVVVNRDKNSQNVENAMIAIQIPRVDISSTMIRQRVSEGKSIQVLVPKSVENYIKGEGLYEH

Beta-lactamase [12] = molecular target: T1, Beta-lactamase; assay: IMP-1 metallo-beta-lactamase inhibitors, dose response, selectivity assay for VIM-2 inhibitor project, biochemical, epi-absorbance (AID 1920)
Leucine aminopeptidase = molecular target: T5, Leucine aminopeptidase (Plasmodium falciparum 3D7, UniProt Q8IL11); assay: P. falciparum M17LAP inhibitors, primary screen, biochemical, fluorogenic H-Leu-NHMec substrate, 1536-well (AID 1619); type: functional
T5 sequence (Q8IL11 whole entry): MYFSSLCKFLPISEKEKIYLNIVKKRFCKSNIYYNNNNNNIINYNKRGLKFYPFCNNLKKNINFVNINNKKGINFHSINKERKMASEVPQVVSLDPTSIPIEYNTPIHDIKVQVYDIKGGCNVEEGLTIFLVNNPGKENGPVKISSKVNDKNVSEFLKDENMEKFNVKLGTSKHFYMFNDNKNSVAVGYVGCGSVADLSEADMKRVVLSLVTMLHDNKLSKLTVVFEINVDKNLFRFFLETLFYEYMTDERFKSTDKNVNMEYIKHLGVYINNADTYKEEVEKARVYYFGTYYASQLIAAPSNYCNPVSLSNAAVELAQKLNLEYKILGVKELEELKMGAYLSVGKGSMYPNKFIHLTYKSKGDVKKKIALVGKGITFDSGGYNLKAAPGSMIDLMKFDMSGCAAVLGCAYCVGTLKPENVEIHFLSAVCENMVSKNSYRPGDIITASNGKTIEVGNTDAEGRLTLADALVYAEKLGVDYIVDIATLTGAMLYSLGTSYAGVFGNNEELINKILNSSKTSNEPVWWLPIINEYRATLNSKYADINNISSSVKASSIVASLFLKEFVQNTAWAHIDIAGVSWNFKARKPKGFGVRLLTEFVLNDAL

[13] = molecular target: T4, Probable nicotinate-nucleotide adenylyltransferase; type: functional, Staphylococcus aureus subsp. aureus N315; conditions: read-out: IC50_Mean
Bcl-2-like protein 10 = molecular target: T6, Bcl-2-like protein 10 (Homo sapiens, UniProt Q9HD36); assay: Biochemical TR3 FP assay of Bcl-B inhibitor potency, EC50 (AID 1243); type: functional
T6 sequence (Q9HD36 whole entry): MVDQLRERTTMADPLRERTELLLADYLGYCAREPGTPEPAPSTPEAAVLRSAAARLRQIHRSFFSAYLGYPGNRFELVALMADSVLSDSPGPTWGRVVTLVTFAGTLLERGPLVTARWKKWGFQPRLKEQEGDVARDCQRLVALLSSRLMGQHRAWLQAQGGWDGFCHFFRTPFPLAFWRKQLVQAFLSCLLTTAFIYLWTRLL

[14] = molecular target: Epstein-Barr nuclear antigen 1 (Epstein-Barr virus (strain B95-8) (HHV-4) (Human herpesvirus 4), UniProt P03211); assay: EBNA-1 inhibitors, dose response, biochemical, fluorescence polarization, 1536-well (AID 2381); set-up: species or system human gammaherpesvirus 4;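 also: fluorescence polarization of a Cy5 DNA probe bound by EBNA-1 protein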
Chain of Epstein-Barr nuclear antigen 1 (P03211 whole entry): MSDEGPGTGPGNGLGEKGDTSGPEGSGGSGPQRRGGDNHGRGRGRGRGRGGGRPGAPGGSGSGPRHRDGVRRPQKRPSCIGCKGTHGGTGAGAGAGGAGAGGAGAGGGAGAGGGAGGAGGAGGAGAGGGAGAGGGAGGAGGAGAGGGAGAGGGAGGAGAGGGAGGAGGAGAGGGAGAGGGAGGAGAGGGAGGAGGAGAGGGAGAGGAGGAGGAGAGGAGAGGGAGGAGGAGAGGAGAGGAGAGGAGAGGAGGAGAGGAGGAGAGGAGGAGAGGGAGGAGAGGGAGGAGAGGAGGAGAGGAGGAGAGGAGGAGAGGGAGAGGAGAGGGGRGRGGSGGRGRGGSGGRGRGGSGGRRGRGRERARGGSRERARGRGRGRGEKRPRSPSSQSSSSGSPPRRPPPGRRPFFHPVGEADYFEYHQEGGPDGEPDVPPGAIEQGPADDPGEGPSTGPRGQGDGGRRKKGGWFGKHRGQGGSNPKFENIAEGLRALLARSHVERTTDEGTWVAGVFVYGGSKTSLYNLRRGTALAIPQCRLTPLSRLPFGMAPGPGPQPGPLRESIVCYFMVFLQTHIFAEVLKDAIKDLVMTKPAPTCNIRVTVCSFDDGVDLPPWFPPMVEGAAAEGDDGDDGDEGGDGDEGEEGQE

[15] = molecular target: Lytic switch protein BZLF1 (Epstein-Barr virus (strain B95-8) (HHV-4) (Human herpesvirus 4), UniProt P03206); assay: EBV ZTA inhibitors, dose response, counter-screen for EBNA-1 inhibitor project, biochemical, fluorescence polarization, Epstein-Barr virus, 1536-well (AID 2377); set-up: species or system human gammaherpesvirus 4;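 also: fluorescence polarization of Cy5-labelled ZRE DNA probe bound by purified Zta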
[16] = inhibitors of Bluetongue virus cytopathic effect, confirmation, arbovirus, BSR cells (AID 1250); type: functional;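 also: protection from viral cytopathic effect measured as cell viability by ATP luminescence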
[17] = molecular target: DNA (cytosine-5)-methyltransferase 1 (Homo sapiens, UniProt P26358); assay: DNMT1 methyltransferase inhibitors, confirmation, biochemical, fluorescent molecular beacon (AID 602386); type: functional
Prothrombin = Prothrombin (Bos taurus, UniProt P00735); assay: thrombin inhibition, dose response, biochemical, fluorescence polarization, uHTS hits (AID 602369); type: functional
[18] = molecular target: Induced myeloid leukemia cell differentiation protein Mcl-1 (Homo sapiens, UniProt Q07820); type: functional
Chain of Induced myeloid leukemia cell differentiation protein Mcl-1 (Q07820 whole entry): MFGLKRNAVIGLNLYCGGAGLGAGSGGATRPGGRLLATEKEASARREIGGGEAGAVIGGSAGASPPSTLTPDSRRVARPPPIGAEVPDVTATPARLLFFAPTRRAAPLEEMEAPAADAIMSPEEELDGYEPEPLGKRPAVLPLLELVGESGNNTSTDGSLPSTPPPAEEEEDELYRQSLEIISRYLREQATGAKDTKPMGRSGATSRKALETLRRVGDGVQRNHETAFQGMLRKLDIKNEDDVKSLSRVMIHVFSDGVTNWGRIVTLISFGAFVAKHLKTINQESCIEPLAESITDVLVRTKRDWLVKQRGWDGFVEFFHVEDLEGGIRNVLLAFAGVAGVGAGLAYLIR

[19] = molecular target: 26S proteasome non-ATPase regulatory subunit 14 (Homo sapiens, UniProt O00487); assay: inhibition of proteasome subunit RPN11 – biochemical, fluorescence polarization, uHTS hits, confirmation (AID 602368); type: functional
Chain of 26S proteasome non-ATPase regulatory subunit 14 (O00487 whole entry): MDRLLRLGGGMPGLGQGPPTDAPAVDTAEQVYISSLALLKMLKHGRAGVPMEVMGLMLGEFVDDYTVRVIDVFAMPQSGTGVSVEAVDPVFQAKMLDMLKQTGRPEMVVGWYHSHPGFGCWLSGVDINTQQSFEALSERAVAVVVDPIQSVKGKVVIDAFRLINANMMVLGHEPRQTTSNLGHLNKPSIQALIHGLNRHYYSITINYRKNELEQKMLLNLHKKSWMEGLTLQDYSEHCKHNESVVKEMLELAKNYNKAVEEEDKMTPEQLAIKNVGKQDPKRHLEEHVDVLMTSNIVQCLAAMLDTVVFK

[20] = molecular target: T7, Histone-lysine N-methyltransferase NSD2 (Homo sapiens, UniProt O96028); type: biochemical
T7 sequence (O96028 whole entry): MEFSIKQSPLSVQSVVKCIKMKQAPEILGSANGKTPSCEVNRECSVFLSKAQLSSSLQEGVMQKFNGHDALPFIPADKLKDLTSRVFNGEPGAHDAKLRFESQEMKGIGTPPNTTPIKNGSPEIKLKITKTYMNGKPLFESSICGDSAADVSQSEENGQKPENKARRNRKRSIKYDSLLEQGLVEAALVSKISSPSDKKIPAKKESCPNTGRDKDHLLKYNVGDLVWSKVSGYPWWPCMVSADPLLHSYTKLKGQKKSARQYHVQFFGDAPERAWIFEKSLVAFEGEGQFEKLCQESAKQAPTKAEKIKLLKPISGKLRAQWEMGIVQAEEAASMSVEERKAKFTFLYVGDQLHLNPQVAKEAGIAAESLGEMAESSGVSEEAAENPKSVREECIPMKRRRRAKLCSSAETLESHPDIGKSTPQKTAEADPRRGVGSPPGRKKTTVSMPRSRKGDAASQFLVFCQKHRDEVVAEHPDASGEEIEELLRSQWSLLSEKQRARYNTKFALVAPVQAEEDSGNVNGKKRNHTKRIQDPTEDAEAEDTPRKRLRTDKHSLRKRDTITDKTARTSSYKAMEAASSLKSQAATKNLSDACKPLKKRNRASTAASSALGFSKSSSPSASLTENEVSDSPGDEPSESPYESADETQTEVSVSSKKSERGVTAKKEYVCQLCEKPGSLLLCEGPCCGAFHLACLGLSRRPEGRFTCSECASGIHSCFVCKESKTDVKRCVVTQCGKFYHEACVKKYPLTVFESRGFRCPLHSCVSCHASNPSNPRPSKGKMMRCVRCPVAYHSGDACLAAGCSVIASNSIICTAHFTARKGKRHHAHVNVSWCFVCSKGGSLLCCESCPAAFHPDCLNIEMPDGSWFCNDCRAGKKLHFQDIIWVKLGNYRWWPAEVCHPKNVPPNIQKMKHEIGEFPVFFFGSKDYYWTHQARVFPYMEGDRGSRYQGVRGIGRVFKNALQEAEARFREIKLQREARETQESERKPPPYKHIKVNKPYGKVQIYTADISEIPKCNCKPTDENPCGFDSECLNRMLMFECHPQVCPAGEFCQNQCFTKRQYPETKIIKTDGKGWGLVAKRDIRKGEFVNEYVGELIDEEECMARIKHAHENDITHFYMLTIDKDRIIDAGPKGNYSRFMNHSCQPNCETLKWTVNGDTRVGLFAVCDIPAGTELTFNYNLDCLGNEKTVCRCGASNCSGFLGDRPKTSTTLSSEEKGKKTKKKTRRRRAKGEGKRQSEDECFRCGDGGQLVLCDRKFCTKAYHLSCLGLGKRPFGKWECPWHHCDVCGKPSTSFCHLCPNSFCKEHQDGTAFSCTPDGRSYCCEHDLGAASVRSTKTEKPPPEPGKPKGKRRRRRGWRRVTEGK

[21] = molecular target: 72 kDa type IV collagenase (Homo sapiens, UniProt P08253); assay: Dose Response validation of uHTS RPN11 inhibitor hits using a MMP-2 Fluorescence assay.; type: functional
Chain of 72 kDa type IV collagenase (P08253 whole entry): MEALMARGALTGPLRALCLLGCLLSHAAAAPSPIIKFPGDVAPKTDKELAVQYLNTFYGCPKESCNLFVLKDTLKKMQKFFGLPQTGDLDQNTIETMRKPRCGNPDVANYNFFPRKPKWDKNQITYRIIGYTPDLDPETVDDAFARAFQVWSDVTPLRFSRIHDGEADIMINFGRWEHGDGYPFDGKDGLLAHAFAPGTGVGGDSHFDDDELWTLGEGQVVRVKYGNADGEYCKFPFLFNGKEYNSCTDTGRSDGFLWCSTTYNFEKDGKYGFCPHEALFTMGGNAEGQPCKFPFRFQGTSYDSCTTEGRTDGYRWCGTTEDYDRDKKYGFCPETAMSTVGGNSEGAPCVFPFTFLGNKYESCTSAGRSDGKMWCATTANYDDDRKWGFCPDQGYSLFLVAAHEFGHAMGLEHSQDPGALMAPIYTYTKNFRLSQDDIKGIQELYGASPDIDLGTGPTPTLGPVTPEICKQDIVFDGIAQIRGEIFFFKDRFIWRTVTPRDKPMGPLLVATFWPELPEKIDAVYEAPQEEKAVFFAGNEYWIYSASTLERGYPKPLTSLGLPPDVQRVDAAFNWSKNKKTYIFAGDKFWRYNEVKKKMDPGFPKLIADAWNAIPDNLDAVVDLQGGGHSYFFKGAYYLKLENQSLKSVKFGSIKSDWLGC

Aminopeptidase N = molecular target: T8, Aminopeptidase N (Plasmodium falciparum FcB1/Columbia, UniProt O96935); assay: P. falciparum M1AAP inhibitors, biochemical, fluorogenic H-Leu-NHMec substrate, 1536-well (AID 1445); set-up: species or system Plasmodium falciparum 3D7, 3D7
T8 sequence (O96935 whole entry): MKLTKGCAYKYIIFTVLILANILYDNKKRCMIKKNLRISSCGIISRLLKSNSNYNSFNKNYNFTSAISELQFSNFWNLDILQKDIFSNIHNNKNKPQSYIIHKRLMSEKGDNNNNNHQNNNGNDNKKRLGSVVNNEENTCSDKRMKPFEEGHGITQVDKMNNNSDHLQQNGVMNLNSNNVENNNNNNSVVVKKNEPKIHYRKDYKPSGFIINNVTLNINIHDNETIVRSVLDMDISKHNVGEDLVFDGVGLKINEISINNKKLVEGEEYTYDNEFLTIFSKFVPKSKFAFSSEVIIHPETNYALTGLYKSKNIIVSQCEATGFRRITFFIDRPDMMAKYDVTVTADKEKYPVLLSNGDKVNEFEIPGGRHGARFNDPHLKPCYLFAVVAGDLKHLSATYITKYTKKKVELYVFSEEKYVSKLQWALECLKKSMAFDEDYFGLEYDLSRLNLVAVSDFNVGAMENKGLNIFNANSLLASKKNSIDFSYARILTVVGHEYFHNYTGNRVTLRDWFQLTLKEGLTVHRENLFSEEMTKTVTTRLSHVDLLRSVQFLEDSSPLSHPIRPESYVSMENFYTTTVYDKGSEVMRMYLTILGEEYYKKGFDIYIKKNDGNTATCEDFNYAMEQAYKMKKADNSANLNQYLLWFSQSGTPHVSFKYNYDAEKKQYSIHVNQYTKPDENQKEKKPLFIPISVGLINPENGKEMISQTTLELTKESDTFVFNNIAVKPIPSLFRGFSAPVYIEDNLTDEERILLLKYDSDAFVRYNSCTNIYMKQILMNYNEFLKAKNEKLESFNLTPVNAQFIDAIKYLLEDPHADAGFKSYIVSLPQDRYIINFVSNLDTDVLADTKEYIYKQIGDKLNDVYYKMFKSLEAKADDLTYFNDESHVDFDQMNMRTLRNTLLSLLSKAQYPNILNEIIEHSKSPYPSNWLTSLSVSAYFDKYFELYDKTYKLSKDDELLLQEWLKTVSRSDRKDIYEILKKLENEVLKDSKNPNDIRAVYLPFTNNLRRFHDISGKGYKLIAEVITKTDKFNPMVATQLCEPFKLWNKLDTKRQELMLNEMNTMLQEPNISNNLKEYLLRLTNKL

Chain of Muscarinic acetylcholine receptor M1 (P08482 whole entry): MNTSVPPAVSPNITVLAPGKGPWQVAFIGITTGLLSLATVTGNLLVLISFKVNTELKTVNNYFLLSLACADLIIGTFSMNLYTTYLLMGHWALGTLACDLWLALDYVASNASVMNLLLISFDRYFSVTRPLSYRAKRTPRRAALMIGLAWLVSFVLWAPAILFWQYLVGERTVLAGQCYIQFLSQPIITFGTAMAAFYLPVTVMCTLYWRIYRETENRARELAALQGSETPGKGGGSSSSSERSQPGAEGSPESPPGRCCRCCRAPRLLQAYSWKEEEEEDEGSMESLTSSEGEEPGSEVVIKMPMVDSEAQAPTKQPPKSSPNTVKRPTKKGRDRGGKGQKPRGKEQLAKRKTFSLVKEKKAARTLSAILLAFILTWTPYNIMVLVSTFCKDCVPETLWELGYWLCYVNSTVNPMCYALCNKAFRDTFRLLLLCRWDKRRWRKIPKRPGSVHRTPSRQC

SMILES: CCOC(=O)N1CCC(NCCNC(=O)c2cccs2)CC1
- EC50 [1]: 14.4 µM (inconclusive)
- EC50 [2]: 77 µM (inconclusive)
- EC50 [3]: 48.9 µM (inconclusive)
- EC50 [4]: 88.4 µM (inconclusive)

SMILES: O=C(O)c1cccc(NC(=S)N/N=C/c2ccccc2OCc2cccc(Br)c2)c1
- IC50 (Beta-lactamase [5]): > 59.6 µM (inactive)
- IC50 [6]: 44.4 µM (active)
- IC50 (Beta Lactamase [7]): 9.15 µM (active)
- IC50 (Beta-lactamase [8]): > 59.6 µM (inactive)
- IC50 (Beta Lactamase [9]): 1.16 µM (active)
- IC50 [10]: > 50 µM (not active)
- IC50 [11]: 5.97 µM (active)
- IC50 (Beta-lactamase [12]): > 59.6 µM (inactive)
- IC50 (Leucine aminopeptidase): 15.8 µM (active)
- IC50 [13]: 15.8 µM (active)

SMILES: O=C1NN(c2ccc(F)c(Cl)c2)C(=O)/C1=C\c1ccco1
- EC50 (Bcl-2-like protein 10): 33.4 µM (active)

SMILES: O=C(CSc1nc2ccc(NC(=O)CSc3nnnn3-c3ccccc3)cc2s1)Nc1ccccc1
- IC50 [14]: 12 µM (not active)
- IC50 [15]: > 111 µM (not active)

SMILES: Cc1ccc(-n2cccc2/C=C2/C(=N)N3C(=NC2=O)SN=C3S(C)(=O)=O)cc1Cl
- IC50 [16]: 28.9 µM (active)
- IC50 [17]: 7.72 µM (active)
- IC50 (Prothrombin): 21.1 µM (active)
- IC50 [18]: 1.86 µM (active)
- IC50 [19]: 13.4 µM (active)
- AC50 [20]: 8.75 µM (active)
- IC50 [21]: > 100 µM (inactive)
- IC50 (Aminopeptidase N): 15 µM (active)
